# Target: T1, human TREK-1 (Homo sapiens, UniProt O95069)
# T1 construct: expressed in transfected cells
# T1 sequence (O95069 1-426): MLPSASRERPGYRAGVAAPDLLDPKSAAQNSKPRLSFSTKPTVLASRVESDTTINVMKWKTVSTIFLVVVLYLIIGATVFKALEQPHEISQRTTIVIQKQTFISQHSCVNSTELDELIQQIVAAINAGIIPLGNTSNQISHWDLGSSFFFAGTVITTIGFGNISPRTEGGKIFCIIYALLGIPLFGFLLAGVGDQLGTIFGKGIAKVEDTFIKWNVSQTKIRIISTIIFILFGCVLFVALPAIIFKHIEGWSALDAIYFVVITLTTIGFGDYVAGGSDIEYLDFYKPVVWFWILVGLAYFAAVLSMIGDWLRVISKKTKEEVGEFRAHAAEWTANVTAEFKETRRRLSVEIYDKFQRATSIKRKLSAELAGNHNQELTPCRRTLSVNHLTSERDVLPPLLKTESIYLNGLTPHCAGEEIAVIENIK
# Assay: TREK-1 Thallium (Tl+) flux assay, Method 1
# Type: cell-based
# Conditions: TREK-1 Thallium (Tl+) flux assay, Method 1
# Method in brief: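 Readout: Thallos fluorescence ratio, taken 25 s post-thallium relative to the pre-thallium baseline average, then converted to % inhibition. Cells were CHO-K1 stably expressing human TREK-1, dye-loaded and exposed to test compound (vehicle 0.3% DMSO) for 10 min prior to thallium stimulation.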
row,IC50,SMILES
1,2780 nM,"Cc1cc(-c2ccc(-c3cccs3)cc2)cnc1NC(=O)c1c(Cl)cnn1C1CCN(C(=O)OC(C)(C)C)CC1 [Compound 410, tert-butyl 4-(4-chloro-5-((3-methyl-5-(4-(thiophen-2-yl)phenyl)pyridin-2-yl)carbamoyl)-1H-pyrazol-1-yl)piperidine-1-carboxylate]"
2,1780 nM,"Cc1cc(OCc2ccccc2)ccc1NC(=O)c1c(Cl)cnn1C1CCN(C(=O)C2CC2)CC1 [Compound 400, N-(4-(benzyloxy)-2-methylphenyl)-4-chloro-1-(1-(cyclopropanecarbonyl)piperidin-4-yl)-1H-pyrazole-5-carboxamide]"

# Same assay, conditions: TREK-1 Thallium (Tl+) flux assay; no *^12 (Method 2) mark on these rows
row,SMILES,IC50
1,"CC(=O)N1CCC(n2ncc(Cl)c2C(=O)Nc2ncc(C#Cc3ccc(F)cc3)cc2F)[C@H](F)C1 (stereo in doubt) [Compound 213, 1-((3R,4R)-1-acetyl-3-fluoropiperidin-4-yl)-4-chloro-N-(3-fluoro-5-((4-fluorophenyl)ethynyl)pyridin-2-yl)-1H-pyrazole-5-carboxamide]",330 nM
2,"O=C(Nc1c(F)cc(C#Cc2ccccc2)cc1F)c1c(Cl)cnn1C1CCOCC1 [Compound 201, 4-chloro-N-(2,6-difluoro-4-(phenylethynyl)phenyl)-1-(tetrahydro-2H-pyran-4-yl)-1H-pyrazole-5-carboxamide]",310 nM
3,"Cc1cc(C#Cc2ccccc2)cnc1NC(=O)c1c(Cl)cnn1CC1CCOC1 (centres unmarked) [Compound 232, 4-chloro-N-(3-methyl-5-(phenylethynyl)pyridin-2-yl)-1-((tetrahydrofuran-3-yl)methyl)-1H-pyrazole-5-carboxamide]",360 nM
4,"CC(C)(C)OC(=O)N1CCC(n2ncc(Cl)c2C(=O)Nc2ncc(C#Cc3ccccc3)cc2F)CC1 [Compound 255, tert-butyl 4-(4-chloro-5-((3-fluoro-5-(phenylethynyl)pyridin-2-yl)carbamoyl)-1H-pyrazol-1-yl)piperidine-1-carboxylate]",420 nM
5,"Cc1cc(C#Cc2ccc(F)cc2)cnc1NC(=O)c1c(Cl)cnn1CC1(C#N)CCN(C(=O)OC(C)(C)C)CC1 [Compound 269, tert-butyl 4-((4-chloro-5-((5-((4-fluorophenyl)ethynyl)-3-methylpyridin-2-yl)carbamoyl)-1H-pyrazol-1-yl)methyl)-4-cyanopiperidine-1-carboxylate]",450 nM
6,"Cc1ccc(C#Cc2cnc(NC(=O)c3c(Cl)cnn3[C@H]3CCOC3)c(C)c2)cc1 [Compound 316, (S)-4-chloro-N-(3-methyl-5-(p-tolylethynyl)pyridin-2-yl)-1-(tetrahydrofuran-3-yl)-1H-pyrazole-5-carboxamide]",610 nM

# Second part, the compound after the results:
row,IC50,SMILES
1,740 nM,"Cc1cc(C#Cc2ccccc2)cnc1NC(=O)c1c(Cl)cnn1CC1CC(C)OC(C)C1 (centres unmarked) [Compound 340, 4-chloro-1-((2,6-dimethyltetrahydro-2H-pyran-4-yl)methyl)-N-(3-methyl-5-(phenylethynyl)pyridin-2-yl)-1H-pyrazole-5-carboxamide]"
2,950 nM,"COCCn1ncc(Cl)c1C(=O)Nc1ncc(C#Cc2ccccc2)cc1C [Compound 369, 4-chloro-1-(2-methoxyethyl)-N-(3-methyl-5-(phenylethynyl)pyridin-2-yl)-1H-pyrazole-5-carboxamide]"
3,660 nM,"Cc1cc(C#Cc2ccc(F)cc2)cnc1NC(=O)c1c(Cl)cnn1C1CC2(CCN(C(=O)C(C)C)C2)C1 (centres unmarked) [Compound 332, 4-chloro-N-{5-[(4-fluorophenyl)ethynyl]-3-methylpyridin-2-yl}-1-[6-(2-methylpropanoyl)-6-azaspiro[3.4]octan-2-yl]-1H-pyrazole-5-carboxamide]"
4,1100 nM,"CCN1CC(n2ncc(Cl)c2C(=O)Nc2ncc(C#Cc3ccccc3)cc2F)C1 [Compound 373, 4-chloro-1-(1-ethylazetidin-3-yl)-N-(3-fluoro-5-(phenylethynyl)pyridin-2-yl)-1H-pyrazole-5-carboxamide hydrate]"

# Same assay, conditions: TREK-1 Thallium (Tl+) flux assay; values without footnote *12 are Method 1
row,IC50,SMILES
1,220 nM,"CC(=O)N1CCC(CCn2ncc(Cl)c2C(=O)Nc2ncc(C#Cc3cccc(F)c3)cc2C)CC1 [Compound 133, 1-(2-(1-acetylpiperidin-4-yl)ethyl)-4-chloro-N-(5-((3-fluorophenyl)ethynyl)-3-methylpyridin-2-yl)-1H-pyrazole-5-carboxamide]"
2,230 nM,"CC(C)C(=O)N1CCOC(Cn2ncc(Cl)c2C(=O)Nc2ncc(C#Cc3ccccc3)cc2F)C1 (centres unmarked) [Compound 145, 4-chloro-N-(3-fluoro-5-(phenylethynyl)pyridin-2-yl)-1-((4-isobutyrylmorpholin-2-yl)methyl)-1H-pyrazole-5-carboxamide]"
3,150 nM,"CC(=O)N1CCC(n2ncc(Cl)c2C(=O)Nc2ncc(C#Cc3ccc(F)cc3)cc2C)CC1C (centres unmarked) [Compound 62, 1-(1-acetyl-2-methylpiperidin-4-yl)-4-chloro-N-(5-((4-fluorophenyl)ethynyl)-3-methylpyridin-2-yl)-1H-pyrazole-5-carboxamide]"
4,100 nM,"CC(=O)N1CC[C@@H](n2ncc(Cl)c2C(=O)Nc2ncc(C#Cc3ccccc3)cc2C)[C@H](F)C1 [Compound 30, 1-((3R,4R)-1-acetyl-5-fluoropiperidin-4-yl)-4-chloro-N-(3-methyl-5-(phenylethynyl)pyridin-2-yl)-1H-pyrazole-5-carboxamide]"
5,210 nM,"Cc1cc(C#Cc2ccc(F)cc2)cnc1NC(=O)c1c(Cl)cnn1[C@H]1CC[C@@H](NC(=O)C(C)C)CC1 [Compound 125, 4-chloro-N-(5-((4-fluorophenyl)ethynyl)-3-methylpyridin-2-yl)-1-(cis-4-isobutyramidocyclohexyl)-1H-pyrazole-5-carboxamide]"
6,220 nM,"CCC(=O)N1CC(n2ncc(Cl)c2C(=O)Nc2ncc(C#Cc3ccccc3)cc2C)C1 [Compound 137, 4-chloro-N-(3-methyl-5-(phenylethynyl)pyridin-2-yl)-1-(1-propionylazetidin-3-yl)-1H-pyrazole-5-carboxamide]"
7,170 nM,"CC(=O)N1CCC(Cn2ncc(Cl)c2C(=O)Nc2ncc(C#Cc3ccccc3)cc2C)CC1 [Compound 85, 1-((1-acetylpiperidin-4-yl)methyl)-4-chloro-N-(3-methyl-5-(phenylethynyl)pyridin-2-yl)-1H-pyrazole-5-carboxamide]"
8,180 nM,"CC(=O)N[C@H]1C[C@@H](n2ncc(Cl)c2C(=O)Nc2ncc(C#Cc3ccccc3)cc2F)C1 [Compound 94, 1-(cis-3-acetamidocyclobutyl)-4-chloro-N-(3-fluoro-5-(phenylethynyl)pyridin-2-yl)-1H-pyrazole-5-carboxamide]"
9,160 nM,"CC(C)(C)OC(=O)N1CCC(C#N)(Cn2ncc(Cl)c2C(=O)Nc2ncc(C#Cc3ccccc3)cc2F)CC1 [Compound 83, tert-butyl 4-((4-chloro-5-((3-fluoro-5-(phenylethynyl)pyridin-2-yl)carbamoyl)-1H-pyrazol-1-yl)methyl)-4-cyanopiperidine-1-carboxylate]"

# Same assay, conditions: read-out: Tl^+ Assay % inhibition at 30 uM (Minus value indicates activation of TREK-1); at 30 uM; CHO-K1 cells stably expressing human TREK-1; minus = activation
row,inhibition at 30 µM,SMILES
1,-79%,"Cc1cc(C#Cc2ccc(F)cc2)cnc1NC(=O)c1nn(CCC2CCN(C(=O)C3CC3)CC2)cc1Cl [Compound 451, 4-chloro-1-(2-(1-(cyclopropanecarbonyl)piperidin-4-yl)ethyl)-N-(5-((4-fluorophenyl)ethynyl)-3-methylpyridin-2-yl)-1H-pyrazole-3-carboxamide]"
2,-99%,"Cc1cc(C#Cc2ccccc2)cnc1NC(=O)c1nn(CC2COCCO2)cc1Cl (centres unmarked) [Compound 449, 1-((1,4-dioxan-2-yl)methyl)-4-chloro-N-(3-methyl-5-(phenylethynyl)pyridin-2-yl)-1H-pyrazole-3-carboxamide]"
